Reference: ChEMBL document CHEMBL1201862, “PubChem BioAssay data set” (2004)
Calls of active or inactive are those of the source.

Legend:
[1] = luciferase reporter signal suppression in cells – H4 neuroglioma cells, luminescence, dose response (AID 1990); format: functional, cell-based
[2] = Luminescence Cell-Based Dose Response HTS to Identify Inhibitors of 5'UTR Stem-Loop Driven Prion Protein mRNA Translation in H4 Neuroglioblastoma Cells. [Related pubchem assays: 1827 (Project Summary), 1813 (Primary HTS)]; format: functional
[3] = alpha-synuclein stem-loop luciferase translation blockers – H4 neuroglioma cells, luminescence, confirmation (AID 1988); format: functional, cell-based
[4] = toxicity toward HepG2 liver cells – cell-based, plate reader, cherry-pick, antagonist series, cytotoxicity control, dose response (AID 743416); format: functional
[5] = blockers of bursicon-stimulated LGR2 cAMP reporter – cell-based, HEK293, CRE-luciferase reporter, cherry pick, set 2, dose response (AID 743343); format: functional;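 further: transfected cells were stimulated with diluted bursicon conditioned medium after compound addition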
[6] = blockade of melanocortin 4 receptor signaling – cell-based, plate reader, cherry pick, counter-screen for LGR2 antagonist project, dose response (AID 743444); format: functional;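 further: transfected HEK 293 cells stimulated with alpha-MSH peptide; potency of inhibitors of the alpha-MSH evoked signal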
Beta-galactosidase = Beta-galactosidase (Escherichia coli, UniProt Q8VNN2); test: Dose response counterscreen for EBI2 assay utilizing the enzyme, b-galactosidase.; format: functional
Chain of Beta-galactosidase (Q8VNN2 whole entry, the tested form may be a part): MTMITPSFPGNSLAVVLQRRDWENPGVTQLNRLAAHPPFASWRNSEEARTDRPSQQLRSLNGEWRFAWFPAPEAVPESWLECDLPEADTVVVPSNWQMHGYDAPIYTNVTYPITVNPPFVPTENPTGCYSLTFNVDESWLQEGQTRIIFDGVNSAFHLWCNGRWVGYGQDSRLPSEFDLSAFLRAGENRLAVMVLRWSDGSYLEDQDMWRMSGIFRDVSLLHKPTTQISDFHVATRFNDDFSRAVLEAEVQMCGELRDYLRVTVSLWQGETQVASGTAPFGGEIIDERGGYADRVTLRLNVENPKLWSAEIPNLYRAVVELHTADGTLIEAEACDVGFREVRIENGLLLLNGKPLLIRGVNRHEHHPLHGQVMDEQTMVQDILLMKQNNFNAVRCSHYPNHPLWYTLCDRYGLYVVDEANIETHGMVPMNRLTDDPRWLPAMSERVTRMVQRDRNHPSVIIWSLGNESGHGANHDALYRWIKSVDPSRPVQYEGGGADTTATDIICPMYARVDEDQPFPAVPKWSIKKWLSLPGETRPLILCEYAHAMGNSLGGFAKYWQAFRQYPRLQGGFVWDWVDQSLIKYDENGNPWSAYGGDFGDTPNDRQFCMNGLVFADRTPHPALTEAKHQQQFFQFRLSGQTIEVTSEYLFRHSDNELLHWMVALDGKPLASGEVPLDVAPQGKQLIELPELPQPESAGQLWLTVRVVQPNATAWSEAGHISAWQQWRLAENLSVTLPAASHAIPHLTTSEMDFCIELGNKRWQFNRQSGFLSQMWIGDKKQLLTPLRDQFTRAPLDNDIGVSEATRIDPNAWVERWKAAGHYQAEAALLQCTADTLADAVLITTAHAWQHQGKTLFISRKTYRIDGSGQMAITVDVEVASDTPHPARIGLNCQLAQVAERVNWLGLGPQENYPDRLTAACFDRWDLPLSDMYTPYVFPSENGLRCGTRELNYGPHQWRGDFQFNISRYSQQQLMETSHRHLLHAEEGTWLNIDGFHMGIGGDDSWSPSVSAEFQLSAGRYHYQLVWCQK

[7] = blockers of HIV-1 envelope-mediated cell-cell fusion – cherry-pick, dose response (AID 652057); format: functional, cell-based
[8] = blockers of HIV-1 ZM109 envelope-driven cell-cell fusion – HeLa effector, CEM target cells, luciferase, cherry-pick, dose response (AID 652058); format: functional, cell-based;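 further: luciferase signal from HIV-1 Env mediated cell-cell fusion of effector and target cells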
Paired box protein Pax-8 = Paired box protein Pax-8 (Homo sapiens, UniProt Q06710); test: PAX8 transcriptional activity inhibition in RMG-I – RMG-I cells, luciferase, cherry-pick, dose response (AID 687027); format: functional, cell-based;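 further: luciferase reporter driven by Pax8 target thyroperoxidase promoter measured by SteadyGlo luminescence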
Chain of Paired box protein Pax-8 (Q06710 whole entry, the tested form may be a part): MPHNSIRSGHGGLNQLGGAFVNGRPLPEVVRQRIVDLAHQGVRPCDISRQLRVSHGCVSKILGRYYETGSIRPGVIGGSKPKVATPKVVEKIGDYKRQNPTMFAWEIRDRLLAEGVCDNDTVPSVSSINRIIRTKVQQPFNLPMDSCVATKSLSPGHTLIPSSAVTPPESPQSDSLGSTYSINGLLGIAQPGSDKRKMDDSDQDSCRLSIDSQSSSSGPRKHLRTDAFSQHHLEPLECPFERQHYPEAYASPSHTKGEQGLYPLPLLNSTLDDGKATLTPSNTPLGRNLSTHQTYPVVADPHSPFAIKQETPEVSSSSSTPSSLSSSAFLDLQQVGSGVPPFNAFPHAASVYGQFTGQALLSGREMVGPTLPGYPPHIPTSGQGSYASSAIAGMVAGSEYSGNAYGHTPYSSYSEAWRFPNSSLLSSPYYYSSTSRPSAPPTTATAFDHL

[9] = HIV-1 AD8 envelope cell-cell fusion blockers – cherry-pick, dose response (AID 652062); format: functional, cell-based;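 further: luciferase signal from cell-cell fusion driven by HIV-1 clade B AD8 Env; potency is for inhibitors of fusion seen as a drop in luminescence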
[10] = growth inhibition of yeast DHODH-expressing 3D7 parasites – SYBR Green, dry powder samples, dose response (AID 1159570); format: functional, cell-based;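 further: parasite growth measured after 72 hours of compound exposure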
[11] = toxicity to human HepG2 hepatoma cells – cell-based, plate reader, dry powder samples, cytotoxicity control, dose response (AID 1159569); format: functional;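 further: inhibitor potency with signal falling toward the positive control level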
[12] = P. falciparum Dd2 growth inhibitors, dose response, SYBR Green, cherry-picked samples (AID 1159567); format: functional, cell-based
[13] = Dd2 malaria parasite growth inhibition potency – SYBR Green, dry powder samples, dose response (AID 1159566); format: functional, cell-based;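 further: potency for growth inhibition with lower SYBR green DNA signal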
[14] = growth inhibition of PfATP4-mutant resistant parasites – NITD609-resistant line, SYBR Green, dry powder, dose response (AID 1159571); format: functional, cell-based;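 further: parasites synchronized at ring stage by sorbitol before testing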
[15] = A549 cell cytotoxicity, dose response, cytotoxicity control, plate reader, cherry-pick, antagonist series (AID 743412); format: functional, cell-based
[16] = toxicity to human hepatoma HepG2 cells – cell-based, cherry-picked samples, cytotoxicity control, dose response (AID 1159577); format: functional

C=CCN1CCN(C(=O)CCCc2ccccc2)CC1
active: EC50 [2] 6.53 µM | EC50 [3] 3.79 µM | AC50 [5] 5.97 µM | AC50 [6] 8.87 µM
inactive: AC50 [4] > 52 µM
inconclusive: EC50 [1] 7.4 µM

CCN1CCN(C(=O)/C=C/c2ccc(C(C)C)cc2)CC1
inactive: IC50 (Beta-galactosidase) > 80 µM

C[C@H](CO)N1C[C@H](C)[C@@H](CN(C)C(=O)Nc2ccc(F)cc2)OCc2ccccc2-c2c(n(C)c3ccccc23)C1=O
active: AC50 [7] < 0.26 µM | AC50 [8] < 0.26 µM | AC50 (Paired box protein Pax-8) 24.6 µM | AC50 [9] < 0.26 µM | AC50 [10] 0.662 µM | AC50 [11] 46.8 µM | AC50 [12] 0.907 µM | AC50 [13] 0.348 µM | AC50 [14] 0.397 µM

CO[C@@H]1CN(C)C(=O)c2cc(NC(C)=O)ccc2OC[C@@H](C)N(Cc2ccc(F)cc2)C[C@@H]1C
inactive: AC50 [15] > 47 µM
active: AC50 [5] 42.9 µM | AC50 [6] 10.7 µM

N#Cc1ccc(-c2ccc([C@H]3[C@@H]4CN(C(=O)C5CCCCC5)C[C@H]3N4)cc2)cc1
active: AC50 [10] 3.78 µM | AC50 [11] 42.9 µM | AC50 [12] 2.2 µM | AC50 [13] 3.47 µM | AC50 [16] 24.1 µM | AC50 [14] 4.16 µM

COc1ccc2c3c([nH]c2c1)[C@H](CO)N(C(=O)Nc1ccc(F)cc1)CC31CCN(S(=O)(=O)c2ccccc2)CC1
active: AC50 [10] 2.14 µM | AC50 [11] 48.9 µM | AC50 [12] 0.909 µM | AC50 [13] 1.3 µM | AC50 [14] 0.417 µM

C[C@H]1CN([C@@H](C)CO)C(=O)c2c(c3ccccc3n2C)-c2ccccc2CO[C@H]1CN(C)S(=O)(=O)c1ccc(Cl)cc1
active: AC50 [10] 0.134 µM | AC50 [11] 41.2 µM | AC50 [12] 0.396 µM | AC50 [13] 0.108 µM | AC50 [14] 0.154 µM
